Results reported in patent publication US10336707B2, “Heterocyclic derivatives modulating activity of certain protein kinases” (EUDENDRON S.R.L., priority 2014, dated 2019).

Tests used:
[1] = tested on: NPM/ALK positive SUDHL-1 cells; test: Tritiated thymidine uptake cell proliferation assay, SUDHL1; type: cell-based; conditions: Homo sapiens, SU-DHL-1; cell line SUDHL1; read-out: IC50 of cellular proliferation, SUDHL1
Protocol: Method: Tritiated Thymidine Uptake Cell Proliferation Assay
The following procedure was used with parent untransformed BaF3 cells, BaF3 cells transformed with the oncogenic fusion protein NPM/ALK, NPM/ALK positive SUDHL-1 cells, NPM/ALK positive SUPM2, ALK-negative HL60 cells, NPM/ALK positive KARPAS-299 cells. The parent untransformed BaF3 cells or Alk-negative HL60 cells are used as controls. Cells were seeded in U-bottomed 96-well plates at 10000 cells/well in a volume of 100 μl in supplemented medium. In the case of the parent untransformed BaF3 cells, the medium was supplemented with IL-3. Serial dilutions of inhibitors were added to the appropriate wells and volumes adjusted to 200 μl. Controls were treated with the equivalent volume of vehicle, DMSO, alone. Plates were incubated at 37° C. for 72 h. 3[H]-thymidine (1 μCi/well) was added for the last 16 h of incubation. Cells were harvested on to paper filters and 3[H]-thymidine incorporation was measured using a scintillation counter (1430 MicroBeta, Wallac, Turku, Finland). The 50% inhibitory concentration (IC50) was defined as the concentration of inhibitor, expressed in nanomolar units, that gave a 50% decrease in 3[H]-thymidine uptake compared with controls.
In Table 4 are reported the IC50 of cellular proliferation assays of example 3 versus ALK positive, mutated and negative cell lines.

[2] = biological target: T1, DDR2 wild-type (Homo sapiens, UniProt Q16832); test: Radiometric protein kinase assay (33PanQuinase Activity Assay), DDR2 wild-type; type: biochemical; conditions: ATP 1.0 μM
T1 construct: either as full-length or enzymatically active fragments; purchased ProQinase GmbH (Freiburg, Germany)
T1 sequence (Q16832 22-855): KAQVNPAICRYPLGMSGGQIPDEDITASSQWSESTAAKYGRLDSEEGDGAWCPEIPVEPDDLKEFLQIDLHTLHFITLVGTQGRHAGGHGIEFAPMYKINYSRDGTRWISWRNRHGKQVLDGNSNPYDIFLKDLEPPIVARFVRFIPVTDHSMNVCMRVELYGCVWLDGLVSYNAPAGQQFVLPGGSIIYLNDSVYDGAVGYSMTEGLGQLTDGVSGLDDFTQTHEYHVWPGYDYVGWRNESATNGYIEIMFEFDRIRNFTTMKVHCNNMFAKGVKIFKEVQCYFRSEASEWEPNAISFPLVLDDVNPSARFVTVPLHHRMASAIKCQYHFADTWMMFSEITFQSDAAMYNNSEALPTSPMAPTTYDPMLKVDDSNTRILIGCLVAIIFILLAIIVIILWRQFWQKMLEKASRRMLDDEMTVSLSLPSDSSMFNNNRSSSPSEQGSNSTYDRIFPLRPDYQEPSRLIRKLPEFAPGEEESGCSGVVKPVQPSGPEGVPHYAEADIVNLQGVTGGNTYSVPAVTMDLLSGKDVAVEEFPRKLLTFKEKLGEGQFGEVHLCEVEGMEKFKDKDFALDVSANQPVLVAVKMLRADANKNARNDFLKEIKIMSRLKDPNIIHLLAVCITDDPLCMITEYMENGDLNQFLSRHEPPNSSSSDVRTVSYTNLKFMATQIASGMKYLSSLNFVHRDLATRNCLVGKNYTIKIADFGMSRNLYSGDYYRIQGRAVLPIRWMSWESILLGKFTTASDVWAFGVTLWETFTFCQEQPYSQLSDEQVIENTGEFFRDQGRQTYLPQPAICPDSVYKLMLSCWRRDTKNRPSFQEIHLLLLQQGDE
Protocol: A proprietary radiometric protein kinase assay (33PanQuinase® Activity Assay) developed by ProQuinase GmbH (Freiburg, Germany) was used for measuring the kinase activity of selected protein kinases. All assays were performed in FlashPlates™ wells 96 Perkin Elmer (Boston, Mass., USA) in a reaction volume of 50 μl. The reaction mixture was obtained in 4 steps in the following order: • 1. 10 μl of a solution of non-radioactive ATP in water; • 2. 25 μl of assay buffer/[γ-^33P]-ATP mixture • 3. 5 μl of test sample in 10% DMSO • 4. 10 μl of enzyme/substrate mixture
All protein kinases provided by ProQinase were expressed in Sf9 insect cells or in E. coli as recombinant GST-fusion proteins or His-tagged proteins, either as full-length or enzymatically active fragments. […] Kinases from external vendors (CAR=Carna Biosciences Inc.; INV=Life Technologies (Invitrogen Corporation); MIL=Merck-Millipore (Millipore Corporation), were expressed, purified and quality-controlled by virtue of the vendors readings.
A stock solution of compound of formula (I) was diluted to 5×10-04M/100% DMSO. […] Incorporation of 33Pi (counting of “cpm”) was determined with a microplate scintillation counter (Microbeta, Wallac). […]
Based on each 10 corresponding residual activities, IC50 values were calculated using Prism 5.04 for Windows (Graphpad, San Diego, Calif.). […]

CN1CCN(c2ccc(C(=O)Nc3n[nH]c4cc(-c5ccc(O)cc5)c(Cc5cc(F)cc(F)c5)cc34)c(NC3CCOCC3)c2)CC1 [Example 3, N-[5-[(3,5-difluorophenyl)methyl]-6-(4-hydroxyphenyl)-1H-indazol-3-yl]-4-(4-methylpiperazin-1-yl)-2-(tetrahydropyran-4-ylamino)benzamide]
IC50 [1]: 36 nM | IC50 [2]: 150 nM
